Consider two molecules from ChEMBL document CHEMBL1201862, “PubChem BioAssay data set” (2004).

Activity calls are given as the source filed them.

One assay deals with T1, Streptokinase A (Streptococcus pyogenes serotype M1, UniProt P10520).
T1 sequence (P10520 whole entry): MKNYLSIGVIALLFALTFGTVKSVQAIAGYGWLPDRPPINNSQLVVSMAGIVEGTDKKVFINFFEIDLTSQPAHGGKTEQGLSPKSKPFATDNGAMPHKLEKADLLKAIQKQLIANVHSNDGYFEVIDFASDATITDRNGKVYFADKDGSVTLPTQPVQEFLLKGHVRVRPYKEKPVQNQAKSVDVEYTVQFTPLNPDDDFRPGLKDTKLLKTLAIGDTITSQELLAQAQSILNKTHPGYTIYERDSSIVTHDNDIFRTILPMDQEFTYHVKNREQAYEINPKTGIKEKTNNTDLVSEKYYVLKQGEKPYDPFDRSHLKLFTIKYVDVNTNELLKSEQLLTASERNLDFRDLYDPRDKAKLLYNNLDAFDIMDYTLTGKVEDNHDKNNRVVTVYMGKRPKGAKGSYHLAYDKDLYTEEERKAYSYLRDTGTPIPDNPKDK
Briefly: viability-normalized secreted streptokinase activity reduction – plasminogen activation absorbance, OD405, dose response (AID 1914).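 Note: secreted streptokinase activity via plasminogen activation per viability signal from cell pellet.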 Format: functional, Streptococcus pyogenes M1 GAS.

A further assay has as its target NS3 (Hepatitis C virus, UniProt A3EZJ3). The experiment in a line: PubChem AID 2173. Also on record: species or system Hepacivirus hominis.
A further assay deals with Streptococcus. Briefly: GAS UMAA2166 growth inhibition – luminescence, BacTiterGlo, counter-screen for streptokinase expression inhibitor project, dose response (AID 1915).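 Note: potency for reduction of bacterial viability or growth.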 Format: functional, organism-based.
The subject of assay [1] is Streptococcus sp. 'group A'. The experiment in a line: Streptococcus pyogenes SK(-)GAS viability under kanamycin – luminescence, BacTiterGlo, confirmation, counter-screen for streptokinase expression inhibitor project, dose response (AID 1900). Format: functional, organism-based.
The next assay has as its target DNA topoisomerase (Yersinia pestis, UniProt A0A2S9PM60). The experiment in a line: Yersinia topoisomerase I cleavage product accumulation – biochemical, cherry-pick, dose response (AID 588525).
The next assay has as its target Genome polyprotein (dengue virus type 2, UniProt P29990). Briefly: flavivirus cap methylation enzyme inhibition – biochemical, confirmation dose response, primary screen (AID 588689). It is filed as functional.
The target of another assay is T2, Protein RecA (Mycobacterium tuberculosis, UniProt P9WHJ3).
T2 sequence (P9WHJ3 whole entry): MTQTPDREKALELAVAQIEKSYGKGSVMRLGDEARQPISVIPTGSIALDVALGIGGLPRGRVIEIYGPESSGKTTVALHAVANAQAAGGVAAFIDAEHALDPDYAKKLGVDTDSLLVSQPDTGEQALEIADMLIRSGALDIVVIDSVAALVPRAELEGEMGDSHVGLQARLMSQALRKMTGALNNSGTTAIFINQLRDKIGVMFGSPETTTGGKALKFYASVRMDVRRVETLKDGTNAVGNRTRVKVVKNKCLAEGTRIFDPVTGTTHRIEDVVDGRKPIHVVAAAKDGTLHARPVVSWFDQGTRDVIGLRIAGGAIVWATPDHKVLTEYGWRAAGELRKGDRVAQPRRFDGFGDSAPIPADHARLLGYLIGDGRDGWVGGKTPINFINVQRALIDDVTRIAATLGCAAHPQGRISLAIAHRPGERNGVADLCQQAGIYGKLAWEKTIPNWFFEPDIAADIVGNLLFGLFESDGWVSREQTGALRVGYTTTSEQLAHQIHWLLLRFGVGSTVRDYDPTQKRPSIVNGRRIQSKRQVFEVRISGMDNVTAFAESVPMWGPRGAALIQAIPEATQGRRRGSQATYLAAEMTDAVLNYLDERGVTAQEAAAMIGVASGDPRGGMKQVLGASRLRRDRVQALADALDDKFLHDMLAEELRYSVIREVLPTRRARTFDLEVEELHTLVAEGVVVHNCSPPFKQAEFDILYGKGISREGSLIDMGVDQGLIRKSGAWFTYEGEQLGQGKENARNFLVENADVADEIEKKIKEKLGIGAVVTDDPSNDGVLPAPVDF
Briefly: Fluorescence Cell-Free Homogeneous Dose Retest to Identify Inhibitors of RecA-Intein Splicing Activity. [Related pubchem assays (depositor defined):AID2097, AID2223, AID489010, AID492950]. Format: functional.

Assay [2] deals with Induced myeloid leukemia cell differentiation protein Mcl-1 (Homo sapiens, UniProt Q07820). It is filed as functional.
The next assay deals with H4. The experiment in a line: Luminescence Cell-Based Dose Response HTS to Identify Activators of 5'UTR Stem-Loop Driven Prion Protein mRNA Translation in H4 Neuroglioblastoma Cells. [Related pubchem assays: 1829 (Project Summary), 1814 (Primary HTS)]. Conditions: Homo sapiens. It is filed as functional.
Assay [3] in a line: Luminescence Cell-Based Dose Confirmation HTS to Identify Activators of 5'UTR Stem-Loop Driven Alpha-Synuclein mRNA Translation in H4 Neuroglioblastoma Cells. [Related pubchem assays: 1829 (Project Summary), 1814 (Primary HTS)]. It is filed as functional.
Assay [4] deals with T3, Polyadenylate-binding protein 1 (Homo sapiens, UniProt P11940). The experiment in a line: MLLE binding blockers, Cy5 peptide tracer – biochemical, fluorescence polarization, Cy5-PAM2 peptide, secondary, miRNA deadenylation inhibitor project, dose response (AID 602260). It is filed as functional. Conditions: read-out: IC50_Mean.
Assay [5] addresses Glucose-6-phosphate 1-dehydrogenase (Homo sapiens, UniProt P11413). Briefly: inhibition of Homo sapiens G6PD, dose series – biochemical, fluorescence, selectivity assay for P. falciparum G6PD inhibitor project, dose response (AID 504792). Format: functional.
A further assay deals with T4, Aminopeptidase N (Plasmodium falciparum FcB1/Columbia, UniProt O96935).
T4 sequence (O96935 whole entry): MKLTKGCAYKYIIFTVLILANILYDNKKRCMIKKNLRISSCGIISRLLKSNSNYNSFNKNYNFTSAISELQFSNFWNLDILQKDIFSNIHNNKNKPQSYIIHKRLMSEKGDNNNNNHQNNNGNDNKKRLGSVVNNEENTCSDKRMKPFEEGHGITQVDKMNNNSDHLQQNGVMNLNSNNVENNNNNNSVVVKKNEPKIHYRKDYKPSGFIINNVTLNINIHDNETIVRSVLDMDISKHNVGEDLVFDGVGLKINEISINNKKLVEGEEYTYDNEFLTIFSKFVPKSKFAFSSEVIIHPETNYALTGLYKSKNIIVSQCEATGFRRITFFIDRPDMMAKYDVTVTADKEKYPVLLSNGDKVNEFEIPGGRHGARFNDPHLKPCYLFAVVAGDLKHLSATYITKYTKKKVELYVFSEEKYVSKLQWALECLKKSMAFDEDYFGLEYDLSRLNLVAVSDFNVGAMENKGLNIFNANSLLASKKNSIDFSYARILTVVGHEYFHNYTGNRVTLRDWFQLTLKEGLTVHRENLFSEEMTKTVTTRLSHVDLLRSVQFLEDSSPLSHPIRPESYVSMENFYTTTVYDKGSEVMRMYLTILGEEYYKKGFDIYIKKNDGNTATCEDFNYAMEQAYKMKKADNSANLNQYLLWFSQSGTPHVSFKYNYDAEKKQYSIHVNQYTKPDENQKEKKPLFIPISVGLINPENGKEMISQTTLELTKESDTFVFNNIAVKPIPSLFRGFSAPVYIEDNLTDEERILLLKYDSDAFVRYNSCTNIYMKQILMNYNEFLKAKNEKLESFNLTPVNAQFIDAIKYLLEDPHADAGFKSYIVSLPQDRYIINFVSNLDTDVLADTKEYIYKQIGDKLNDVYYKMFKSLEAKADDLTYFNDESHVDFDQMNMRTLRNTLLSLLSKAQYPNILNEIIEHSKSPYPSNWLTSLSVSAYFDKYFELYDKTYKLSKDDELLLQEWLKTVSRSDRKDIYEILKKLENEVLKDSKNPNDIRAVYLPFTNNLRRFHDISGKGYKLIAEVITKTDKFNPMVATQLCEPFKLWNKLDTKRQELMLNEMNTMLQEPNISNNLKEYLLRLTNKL
The experiment in a line: malaria alanyl aminopeptidase activity blockers – biochemical, fluorogenic H-Leu-NHMec substrate, 1536-well (AID 1445). Also on record: species or system Plasmodium falciparum 3D7, 3D7.

The nature of assay [6]: mitochondrial function rescue without frataxin homolog – Friedreich's ataxia, plus single-dose screen, dose response (AID 1465).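 Note: yeast depleted of Yfh1p frataxin homolog grown on glycerol needing respiration; WST-1 tetrazolium dye reduction as measure of cellular dehydrogenase metabolic activity.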 Format: functional.
The subject of the next assay is Vero. The experiment in a line: viability of Vero cells under compound – cytotoxicity control for flavivirus capping enzyme inhibitors (AID 588742). Conditions: Chlorocebus sabaeus. It is filed as functional.
The nature of assay [7]: Luminescence Cell-Based Dose Response HTS to Identify Activators of Luciferase Translation or Activity in H4 […] Cells. [Related pubchem assays: 1829 (Project Summary), 1814 (Primary HTS)]. Format: functional.
The target of assay [8] is T3, Polyadenylate-binding protein 1. Briefly: MLLE domain peptide-binding blockers, IC50 – biochemical, fluorescence polarization, FITC-PAM2 peptide, dose response (AID 602259). It is filed as functional. As to conditions: read-out: IC50_Mean.
Assay [9] has as its target T5, Replicative DNA helicase DnaB (Mycobacterium tuberculosis, UniProt P9WMR3).
T5 sequence (P9WMR3 whole entry): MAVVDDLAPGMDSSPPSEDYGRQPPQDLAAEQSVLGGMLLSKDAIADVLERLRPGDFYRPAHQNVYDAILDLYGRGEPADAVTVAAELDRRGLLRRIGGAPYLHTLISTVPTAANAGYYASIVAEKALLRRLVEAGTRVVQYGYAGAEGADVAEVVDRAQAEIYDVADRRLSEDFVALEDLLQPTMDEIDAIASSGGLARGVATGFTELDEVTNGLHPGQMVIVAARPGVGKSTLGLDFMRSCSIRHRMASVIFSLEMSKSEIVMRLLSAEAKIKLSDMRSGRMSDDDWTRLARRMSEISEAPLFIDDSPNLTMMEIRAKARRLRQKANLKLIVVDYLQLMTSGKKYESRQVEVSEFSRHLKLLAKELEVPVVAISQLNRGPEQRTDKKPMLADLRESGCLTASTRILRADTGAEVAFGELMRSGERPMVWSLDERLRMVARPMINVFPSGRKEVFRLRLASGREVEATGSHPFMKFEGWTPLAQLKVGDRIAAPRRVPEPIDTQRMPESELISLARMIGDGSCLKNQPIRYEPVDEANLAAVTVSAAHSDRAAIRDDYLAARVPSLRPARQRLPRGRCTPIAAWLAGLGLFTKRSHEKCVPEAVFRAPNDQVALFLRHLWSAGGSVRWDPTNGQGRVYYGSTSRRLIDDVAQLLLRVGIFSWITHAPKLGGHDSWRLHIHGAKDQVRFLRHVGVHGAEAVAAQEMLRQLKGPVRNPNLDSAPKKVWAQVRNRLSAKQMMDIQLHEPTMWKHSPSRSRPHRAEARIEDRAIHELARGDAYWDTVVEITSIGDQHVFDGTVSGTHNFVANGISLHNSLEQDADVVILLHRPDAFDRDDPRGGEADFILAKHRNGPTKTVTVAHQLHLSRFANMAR
Briefly: DnaB intein splicing inhibitors, dose response, biochemical, cell-free fluorescence (AID 449749). It is filed as functional.

T3 sequence (P11940 whole entry): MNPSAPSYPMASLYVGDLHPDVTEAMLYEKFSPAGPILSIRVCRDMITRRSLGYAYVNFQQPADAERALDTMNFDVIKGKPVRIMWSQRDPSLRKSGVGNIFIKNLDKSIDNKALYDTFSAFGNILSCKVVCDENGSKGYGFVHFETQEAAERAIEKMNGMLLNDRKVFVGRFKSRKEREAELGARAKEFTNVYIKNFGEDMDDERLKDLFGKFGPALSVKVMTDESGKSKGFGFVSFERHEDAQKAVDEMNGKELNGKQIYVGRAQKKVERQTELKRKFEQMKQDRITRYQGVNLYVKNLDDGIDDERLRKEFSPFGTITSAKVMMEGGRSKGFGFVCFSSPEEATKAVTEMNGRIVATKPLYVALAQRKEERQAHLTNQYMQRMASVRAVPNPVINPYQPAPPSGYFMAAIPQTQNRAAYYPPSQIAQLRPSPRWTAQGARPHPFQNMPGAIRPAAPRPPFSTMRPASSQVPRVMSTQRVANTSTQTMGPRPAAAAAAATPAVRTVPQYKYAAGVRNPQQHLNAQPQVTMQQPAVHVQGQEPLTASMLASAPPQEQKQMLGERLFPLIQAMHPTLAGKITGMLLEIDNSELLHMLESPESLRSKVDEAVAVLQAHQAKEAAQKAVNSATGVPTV
Sequence of DNA topoisomerase (A0A2S9PM60 whole entry): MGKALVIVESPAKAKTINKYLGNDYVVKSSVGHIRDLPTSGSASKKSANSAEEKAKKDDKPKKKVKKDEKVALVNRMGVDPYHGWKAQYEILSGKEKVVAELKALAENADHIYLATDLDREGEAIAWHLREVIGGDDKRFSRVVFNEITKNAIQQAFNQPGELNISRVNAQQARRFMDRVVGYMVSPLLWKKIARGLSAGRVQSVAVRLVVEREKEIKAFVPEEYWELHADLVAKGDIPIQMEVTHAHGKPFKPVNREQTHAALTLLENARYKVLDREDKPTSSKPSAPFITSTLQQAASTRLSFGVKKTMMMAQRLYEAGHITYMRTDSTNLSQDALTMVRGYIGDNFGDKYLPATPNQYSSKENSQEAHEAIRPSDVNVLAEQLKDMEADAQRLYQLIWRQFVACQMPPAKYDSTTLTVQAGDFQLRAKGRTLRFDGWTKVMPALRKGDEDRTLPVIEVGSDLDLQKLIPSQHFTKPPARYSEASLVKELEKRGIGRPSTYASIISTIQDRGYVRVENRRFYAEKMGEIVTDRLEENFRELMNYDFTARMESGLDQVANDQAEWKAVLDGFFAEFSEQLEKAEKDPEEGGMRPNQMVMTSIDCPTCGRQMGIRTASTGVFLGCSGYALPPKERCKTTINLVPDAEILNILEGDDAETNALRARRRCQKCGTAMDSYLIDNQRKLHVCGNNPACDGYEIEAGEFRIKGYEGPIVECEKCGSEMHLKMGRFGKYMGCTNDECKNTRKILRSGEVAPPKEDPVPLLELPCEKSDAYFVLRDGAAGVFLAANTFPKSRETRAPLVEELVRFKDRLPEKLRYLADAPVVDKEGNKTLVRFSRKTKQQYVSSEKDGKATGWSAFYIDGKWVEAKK
Sequence of NS3 (A3EZJ3 whole entry): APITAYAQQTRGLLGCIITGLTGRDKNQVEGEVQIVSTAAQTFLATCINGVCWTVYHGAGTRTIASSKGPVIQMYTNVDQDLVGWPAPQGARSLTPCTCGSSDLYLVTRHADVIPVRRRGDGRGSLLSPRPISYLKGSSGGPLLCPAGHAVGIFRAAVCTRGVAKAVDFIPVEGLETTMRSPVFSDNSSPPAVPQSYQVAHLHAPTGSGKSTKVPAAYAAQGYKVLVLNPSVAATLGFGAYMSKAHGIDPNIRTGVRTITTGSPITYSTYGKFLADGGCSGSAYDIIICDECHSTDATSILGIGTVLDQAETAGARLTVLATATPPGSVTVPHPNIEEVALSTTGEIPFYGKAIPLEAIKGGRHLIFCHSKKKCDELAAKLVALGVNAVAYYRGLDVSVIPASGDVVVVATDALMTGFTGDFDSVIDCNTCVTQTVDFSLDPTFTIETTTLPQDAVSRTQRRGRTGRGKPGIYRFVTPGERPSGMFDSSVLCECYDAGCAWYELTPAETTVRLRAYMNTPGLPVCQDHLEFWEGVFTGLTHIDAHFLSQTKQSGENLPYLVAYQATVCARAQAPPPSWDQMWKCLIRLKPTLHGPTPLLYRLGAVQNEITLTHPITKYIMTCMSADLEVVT
Sequence of Glucose-6-phosphate 1-dehydrogenase (P11413 whole entry): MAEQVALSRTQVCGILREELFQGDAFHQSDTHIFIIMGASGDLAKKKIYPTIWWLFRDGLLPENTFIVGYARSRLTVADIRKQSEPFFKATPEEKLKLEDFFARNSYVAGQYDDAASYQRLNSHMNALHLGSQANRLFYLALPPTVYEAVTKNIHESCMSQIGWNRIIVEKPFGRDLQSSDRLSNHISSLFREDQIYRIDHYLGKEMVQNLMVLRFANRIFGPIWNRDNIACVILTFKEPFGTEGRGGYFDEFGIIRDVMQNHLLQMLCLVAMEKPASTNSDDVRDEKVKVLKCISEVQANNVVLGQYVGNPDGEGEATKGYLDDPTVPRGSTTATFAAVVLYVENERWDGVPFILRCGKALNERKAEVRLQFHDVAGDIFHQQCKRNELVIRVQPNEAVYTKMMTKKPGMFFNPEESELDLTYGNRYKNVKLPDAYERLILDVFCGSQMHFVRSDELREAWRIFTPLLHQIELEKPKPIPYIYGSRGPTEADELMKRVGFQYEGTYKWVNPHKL
Sequence of Induced myeloid leukemia cell differentiation protein Mcl-1 (Q07820 whole entry): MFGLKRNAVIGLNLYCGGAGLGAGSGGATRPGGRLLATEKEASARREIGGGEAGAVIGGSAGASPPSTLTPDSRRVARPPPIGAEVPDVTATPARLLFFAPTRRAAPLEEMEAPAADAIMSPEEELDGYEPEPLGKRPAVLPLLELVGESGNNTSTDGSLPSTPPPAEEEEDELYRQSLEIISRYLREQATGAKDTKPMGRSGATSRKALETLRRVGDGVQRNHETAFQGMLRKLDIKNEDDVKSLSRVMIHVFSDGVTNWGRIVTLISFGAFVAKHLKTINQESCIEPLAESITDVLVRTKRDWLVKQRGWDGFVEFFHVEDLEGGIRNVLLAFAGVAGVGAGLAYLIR
Sequence of Genome polyprotein (P29990 2492-3391 limits assumed): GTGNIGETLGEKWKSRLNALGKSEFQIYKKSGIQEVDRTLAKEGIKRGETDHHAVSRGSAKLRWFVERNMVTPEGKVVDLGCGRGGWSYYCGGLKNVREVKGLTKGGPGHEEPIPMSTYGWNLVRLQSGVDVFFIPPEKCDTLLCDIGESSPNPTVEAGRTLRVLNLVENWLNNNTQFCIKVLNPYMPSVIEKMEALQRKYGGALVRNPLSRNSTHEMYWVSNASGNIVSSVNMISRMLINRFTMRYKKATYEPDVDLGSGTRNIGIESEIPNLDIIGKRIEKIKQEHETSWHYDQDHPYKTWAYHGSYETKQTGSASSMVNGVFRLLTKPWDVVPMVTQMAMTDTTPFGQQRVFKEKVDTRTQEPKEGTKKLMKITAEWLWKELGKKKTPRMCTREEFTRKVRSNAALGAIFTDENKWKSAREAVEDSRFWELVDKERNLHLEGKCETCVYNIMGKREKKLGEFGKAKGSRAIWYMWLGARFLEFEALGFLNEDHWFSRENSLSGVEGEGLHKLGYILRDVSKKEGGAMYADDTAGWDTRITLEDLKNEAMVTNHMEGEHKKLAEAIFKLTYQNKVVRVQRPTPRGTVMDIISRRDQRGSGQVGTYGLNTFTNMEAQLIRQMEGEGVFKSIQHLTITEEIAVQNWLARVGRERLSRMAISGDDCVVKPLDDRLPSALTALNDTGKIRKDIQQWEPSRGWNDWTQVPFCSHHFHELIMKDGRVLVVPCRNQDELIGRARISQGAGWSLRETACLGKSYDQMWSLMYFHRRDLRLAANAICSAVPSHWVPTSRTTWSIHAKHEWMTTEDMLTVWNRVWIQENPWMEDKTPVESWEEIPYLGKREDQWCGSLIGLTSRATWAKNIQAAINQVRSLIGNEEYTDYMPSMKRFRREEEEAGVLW

On to `Cc1ccc(C2C(C(=O)c3cc4ccccc4o3)=C(O)C(=O)N2c2cc(C)on2)cc1` (stereo not drawn), for which the EC50 was 6.3 µM (active) at Streptokinase A, 6.76 µM (active) with Streptococcus and 2.28 µM (active) in assay [1]. Further, the IC50 at NS3 is 2.49 µM (active). Further, the AC50 on DNA topoisomerase was 8.86 µM (active).
For `Cc1ccc(S(=O)(=O)/N=C2/C=C(C3C(=O)CC(C)(C)CC3=O)C(=O)c3ccccc32)cc1`, the IC50 is 10.1 µM (active) on Genome polyprotein; 2.13 µM (active) in assay [2]; > 66 µM (inactive) in assay [4]; > 80 µM (inactive) in [5]; 34.5 µM (active) on Aminopeptidase N; > 66 µM (inactive) in [8]. Moreover, the concentration giving a half-maximal response (EC50) at Protein RecA is 3.22 µM (active); in the assay with H4, 46.4 µM (active); in assay [3] it was 8.21 µM (active); in assay [6], > 100 µM (active); in assay [7], 42.1 µM (active). Further, the CC50 in the assay with Vero is > 40 µM (active). Moreover, in assay [9], the AC50 is 113 µM (active).
